Data taken from patent US8263526B2, “Compositions of keratin hydrolysate and microbes for pest control applications” (priority 2006, dated 2012).
Where two headings read alike, the source gives them in different places.

Tests used:
Assay type in all cases: cell-based
[1] = system: blastospores of Paecilomyces fumosoroseus ARSEF 3581; assay: % germination assay (6-hr) of blastospores in surfactant solutions
Protocol: (§1) Blastospore suspensions (˜1×10^8 blastospores/ml) were prepared by adding 1.3 g of the dried blastospores of P. fumosoroseus formulate to 100 ml sterile deionized water. The spore suspension was stirred for 30 minutes, and then allowed to stand 1 minute to allow the diatomaceous earth to settle. Without disturbing the diatomaceous earth, 30 ml of the spore suspension was removed and transferred to a sterile bottle. The blastospore concentration of the suspension was measured using a hemacytometer.
A one ml aliquot of the previously described blastospore suspension was added to 49 ml of the foaming agents in a 250 ml baffled Erlenmeyer flask. The blastospore suspensions were incubated in a rotary shaker incubator (Innova 4000, New Brunswick) at 300 RPM and 28° C. for 6 hours. Blastospore germination was measured by microscopic observation of the germ tube formation. Four slides were prepared from the incubated blastospore suspension using separate pipets. Germ tube formation was measured for 100 blastospores on each slide. A total of 400 blastospores were counted from each flask.

[2] = system: blastospores of Paecilomyces fumosoroseus ARSEF 3581; assay: Conidia production assay on water agar in the dark; conditions: 2 weeks in the dark
Protocol: For the conidia production assay, 100 ul of the blastospore suspension was spread onto WA plates (Water Agar: 20 g/L water.) and incubated 2 weeks in the dark. Three plates were used for each treatment. The drop was spread with a sterile plastic spreader and incubated at 23° C. in the dark for 2 weeks. After two weeks, 5 ml of sterile water was added to each plate, and a sterile loop was used to release the conidia from the fungal growth. The spore suspension was drawn up with a pipet and the volume measured. The conidia concentration was measured using a hemacytometer. Our previous determination of the blastospore concentration in the suspension applied to the […] plates was used to calculate conidia production/blastospore.

[3] = system: blastospores of Paecilomyces fumosoroseus ARSEF 3581; assay: Viability assay, CFU spread plate after 1 hour exposure to surfactant; conditions: in words
Protocol: as §1
For these studies, 1 ml of the previously described blastospore suspension was added to 49 ml of the foaming agents and held for 1 hour at room temperature. After the one hour exposure period, colony forming units (cfu) were determined for blastospore suspensions using standard spread plating techniques. Appropriate dilutions of blastospore suspensions were spread on SDMA (Sabouraud dextrose maltose agar) plates, 10 g Bacto peptone, 20 g Difco dextrose, 20 g Sigma maltose, and 15 g Bacto agar per 1 L water. Three plates were used for each dilution. Plates were incubated at 28° C. for 2-3 days and CFUs counted.

## CCCCCCCCCCCCCCCC[N+](C)(C)C.[Br-] [hexadecyl trimethylammonium Br, hexadecyl trimethylammonium bromide]
[1]; surfactant 0.5% (w/w), 6 hours, 28° C.
  % viability 6-hr germination: 0.0%

## Triton x-100
[1]; 6-hr germination assay, in words
  germination of blastospores relative to the water-only control: strongly inhibited
[2]; surfactant 0.5% (w/w)
  conidia production (conidia/blastospore): 95 conidia/blastospore
[2]; surfactant 1.0% (w/w)
  conidia production (conidia/blastospore): 57 conidia/blastospore
[2]; surfactant 2.0% (w/w)
  conidia production (conidia/blastospore): 27 conidia/blastospore
[3]
  cfu formation relative to the water control: comparable or better cfu formation than the water control

## sodium alpha olefin sulfonate [Na alpha olefin sulfonate]
[1]
  % viability 6-hr germination: 0.0%

## sodium lauryl ether sulfate (2-mole) [Na Lauryl ether sulfate (2-mole)]
[1]
  % viability 6-hr germination: 0.0%
